Experiments:
Type in all cases: in vivo
[1] = tested on: barnyardgrass (Echinochloa crus-galli); assay: Test A preemergence, barnyardgrass; conditions: 0 to 100 scale (0 no effect, 100 complete control)
Summary of the method: (§1)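 Visual injury on a 0 to 100 scale, about 10 days post-spray in the greenhouse. Postemergence plants measured 2–10 cm at one to two leaves; preemergence pots received a directed soil spray. Soil was a loam–sand blend.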

kochia (Kochia scoparia) [2] = assay: Test A preemergence, kochia; conditions: 0 to 100 scale (0 no effect, 100 complete control)
Summary of the method: as §1

[3] = tested on: ragweed (common ragweed, Ambrosia elatior); assay: Test A preemergence, ragweed; conditions: 0 to 100 scale (0 no effect, 100 complete control)
Summary of the method: as §1

[4] = tested on: ryegrass, Italian (Lolium multiflorum); assay: Test A preemergence, Italian ryegrass; conditions: 0 to 100 scale (0 no effect, 100 complete control)
Summary of the method: as §1

[5] = tested on: foxtail, giant (Setaria faberii); assay: Test A preemergence, giant foxtail; conditions: 0 to 100 scale (0 no effect, 100 complete control)
Summary of the method: as §1

[6] = tested on: pigweed (Amaranthus retroflexus); assay: Test A preemergence, pigweed; conditions: 0 to 100 scale (0 no effect, 100 complete control)
Summary of the method: as §1

[7] = tested on: barnyardgrass (Echinochloa crus-galli); assay: Test A postemergence, barnyardgrass; conditions: visual injury, 0 to 100 scale (0 no effect, 100 complete control), approximately 10 days
Summary of the method: as §1

kochia (Kochia scoparia) [8] = assay: Test A postemergence, kochia; conditions: visual injury, 0 to 100 scale (0 no effect, 100 complete control), approximately 10 days
Summary of the method: as §1

[9] = tested on: ragweed (common ragweed, Ambrosia elatior); assay: Test A postemergence, ragweed; conditions: visual injury, 0 to 100 scale (0 no effect, 100 complete control), approximately 10 days
Summary of the method: as §1

[10] = tested on: ryegrass, Italian (Lolium multiflorum); assay: Test A postemergence, Italian ryegrass; conditions: visual injury, 0 to 100 scale (0 no effect, 100 complete control), approximately 10 days
Summary of the method: as §1

[11] = tested on: foxtail, giant (Setaria faberii); assay: Test A postemergence, giant foxtail; conditions: visual injury, 0 to 100 scale (0 no effect, 100 complete control), approximately 10 days
Summary of the method: as §1

[12] = tested on: pigweed (Amaranthus retroflexus); assay: Test A postemergence, pigweed; conditions: visual injury, 0 to 100 scale (0 no effect, 100 complete control), approximately 10 days
Summary of the method: as §1

[13] = tested on: blackgrass (Alopecurus myosuroides); assay: Test A postemergence, blackgrass; conditions: visual injury, 0 to 100 scale (0 no effect, 100 complete control), approximately 10 days
Summary of the method: as §1

[14] = tested on: galium (catchweed bedstraw, Galium aparine); assay: Test A postemergence, galium; conditions: visual injury, 0 to 100 scale (0 no effect, 100 complete control), approximately 10 days
Summary of the method: as §1

[15] = tested on: wheat (Triticum aestivum); assay: Test A postemergence, wheat; conditions: visual injury, 0 to 100 scale (0 no effect, 100 complete control), approximately 10 days
Summary of the method: as §1

corn (Zea mays) = assay: Test A postemergence, corn; conditions: visual injury, 0 to 100 scale (0 no effect, 100 complete control), approximately 10 days
Summary of the method: as §1

rice (Oryza sativa) = assay: Test B flooded paddy test, rice; conditions: 250 g ai/ha, applied to paddy water, visual rating after 13 to 15 days, scale 0 (no effect) to 100 (complete control)
Summary of the method: (§2)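 Pots were flooded to 3 cm above the soil surface at treatment, compound applied directly to the paddy water, and that depth held throughout. Plants were kept in a greenhouse for 13 to 15 days, then visually rated against untreated controls.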

[16] = tested on: sedge, umbrella (small-flower umbrella sedge, Cyperus difformis); assay: Test B flooded paddy test, umbrella sedge; conditions: 250 g ai/ha, applied to paddy water, visual rating after 13 to 15 days, scale 0 (no effect) to 100 (complete control)
Summary of the method: as §2

[17] = tested on: ducksalad (Heteranthera limosa); assay: Test B flooded paddy test, ducksalad; conditions: 250 g ai/ha, applied to paddy water, visual rating after 13 to 15 days, scale 0 (no effect) to 100 (complete control)
Summary of the method: as §2

[18] = tested on: barnyardgrass (Echinochloa crus-galli); assay: Test B flooded paddy test, barnyardgrass; conditions: 250 g ai/ha, applied to paddy water, visual rating after 13 to 15 days, scale 0 (no effect) to 100 (complete control)
Summary of the method: as §2

Row | Compound | Plant response rating, Barnyardgrass ([1]; 125 g ai/ha) | Plant response rating, Barnyardgrass ([1]; 500 g ai/ha) | Plant response rating, Kochia (kochia (Kochia scoparia) [2]; 125 g ai/ha) | Plant response rating, Kochia (kochia (Kochia scoparia) [2]; 500 g ai/ha) | Plant response rating, Ragweed ([3]; 125 g ai/ha) | Plant response rating, Ragweed ([3]; 500 g ai/ha) | Plant response rating, Ryegrass, Italian ([4]; 125 g ai/ha) | Plant response rating, Ryegrass, Italian ([4]; 500 g ai/ha) | Plant response rating, Foxtail, Giant ([5]; 125 g ai/ha) | Plant response rating, Foxtail, Giant ([5]; 500 g ai/ha) | Plant response rating, Pigweed ([6]; 125 g ai/ha) | Plant response rating, Pigweed ([6]; 500 g ai/ha) | Plant response rating, Barnyardgrass ([7]; 125 g ai/ha) | Plant response rating, Barnyardgrass ([7]; 500 g ai/ha) | Plant response rating, Kochia (kochia (Kochia scoparia) [8]; 125 g ai/ha) | Plant response rating, Kochia (kochia (Kochia scoparia) [8]; 500 g ai/ha) | Plant response rating, Ragweed ([9]; 125 g ai/ha) | Plant response rating, Ragweed ([9]; 500 g ai/ha) | Plant response rating, Ryegrass, Italian ([10]; 125 g ai/ha) | Plant response rating, Ryegrass, Italian ([10]; 500 g ai/ha) | further results
1 | O=C1NCC(c2cccc(OCC3CC3)c2)C1C(=O)Nc1ccccc1Cl (stereo not drawn) [Compound 4] | 60 | 90 | 0 | 30 | 0 | 0 | 0 | 20 | 70 | 90 | 0 | 20 | 40 | 80 | 0 | 0 | 0 | 40 | 0 | 40 | Plant response rating, Foxtail, Giant ([11]; 125 g ai/ha): 40; Plant response rating, Foxtail, Giant ([11]; 500 g ai/ha): 80; Plant response rating, Pigweed ([12]; 125 g ai/ha): 0; Plant response rating, Pigweed ([12]; 500 g ai/ha): 30; Plant response rating, Blackgrass ([13]; 125 g ai/ha): 0; Plant response rating, Blackgrass ([13]; 500 g ai/ha): 40; Plant response rating, Galium ([14]; 125 g ai/ha): 0; Plant response rating, Galium ([14]; 500 g ai/ha): 0; Plant response rating, Wheat ([15]; 125 g ai/ha): 0; Plant response rating, Wheat ([15]; 500 g ai/ha): 0; Plant response rating, Corn (corn (Zea mays); 125 g ai/ha): 0; Plant response rating, Corn (corn (Zea mays); 500 g ai/ha): 0; Plant response rating, Rice (Flood) (rice (Oryza sativa)): 0; Plant response rating, Sedge, Umbrella (Flood) [16]: 0; Plant response rating, Ducksalad (Flood) [17]: 0; Plant response rating, Barnyardgrass (Flood) [18]: 0
2 | O=C1NCC(c2cccc(OCC3OCCO3)c2)C1C(=O)Nc1ccccc1C(F)(F)F (stereo not drawn) [Compound 5] | 0 | 50 | 0 | 0 | 0 | 0 | 0 | 0 | 30 | 90 | 0 | 30 | 0 | 20 | 0 | 0 | 0 | 0 | 20 | 20 | Plant response rating, Foxtail, Giant ([11]; 125 g ai/ha): 20; Plant response rating, Foxtail, Giant ([11]; 500 g ai/ha): 50; Plant response rating, Pigweed ([12]; 125 g ai/ha): 0; Plant response rating, Pigweed ([12]; 500 g ai/ha): 0; Plant response rating, Blackgrass ([13]; 125 g ai/ha): 0; Plant response rating, Blackgrass ([13]; 500 g ai/ha): 0; Plant response rating, Galium ([14]; 125 g ai/ha): 0; Plant response rating, Galium ([14]; 500 g ai/ha): 0; Plant response rating, Wheat ([15]; 125 g ai/ha): 0; Plant response rating, Wheat ([15]; 500 g ai/ha): 0; Plant response rating, Corn (corn (Zea mays); 125 g ai/ha): 0; Plant response rating, Corn (corn (Zea mays); 500 g ai/ha): 0; Plant response rating, Rice (Flood) (rice (Oryza sativa)): 0; Plant response rating, Sedge, Umbrella (Flood) [16]: 0; Plant response rating, Ducksalad (Flood) [17]: 65; Plant response rating, Barnyardgrass (Flood) [18]: 0
3 | O=C1NCC(c2cccc(OCC3OCCO3)c2)C1C(=O)Nc1ccccc1Cl (stereo not drawn) [Compound 6] | 20 | 80 | 0 | 0 | 0 | 20 | 0 | 0 | 70 | 90 | 60 | 50 | 0 | 70 | 0 | 0 | 0 | 0 | 0 | 0 | Plant response rating, Foxtail, Giant ([11]; 125 g ai/ha): 0; Plant response rating, Foxtail, Giant ([11]; 500 g ai/ha): 70; Plant response rating, Pigweed ([12]; 125 g ai/ha): 0; Plant response rating, Pigweed ([12]; 500 g ai/ha): 0; Plant response rating, Blackgrass ([13]; 125 g ai/ha): 0; Plant response rating, Blackgrass ([13]; 500 g ai/ha): 20; Plant response rating, Galium ([14]; 125 g ai/ha): 0; Plant response rating, Galium ([14]; 500 g ai/ha): 0; Plant response rating, Wheat ([15]; 125 g ai/ha): 0; Plant response rating, Wheat ([15]; 500 g ai/ha): 20; Plant response rating, Corn (corn (Zea mays); 125 g ai/ha): 0; Plant response rating, Corn (corn (Zea mays); 500 g ai/ha): 20; Plant response rating, Rice (Flood) (rice (Oryza sativa)): 0; Plant response rating, Sedge, Umbrella (Flood) [16]: 0; Plant response rating, Ducksalad (Flood) [17]: 0; Plant response rating, Barnyardgrass (Flood) [18]: 0
4 | O=C1NCC(c2cccc(OCC3OCCO3)c2)C1C(=O)Nc1cccc(F)c1F (stereo not drawn) [Compound 7] | 60 | 90 | 0 | 0 | 0 | 0 | 30 | 30 | 90 | 90 | 60 | 60 | 40 | 70 | 0 | 0 | 0 | 20 | 0 | 20 | Plant response rating, Foxtail, Giant ([11]; 125 g ai/ha): 20; Plant response rating, Foxtail, Giant ([11]; 500 g ai/ha): 70; Plant response rating, Pigweed ([12]; 125 g ai/ha): 0; Plant response rating, Pigweed ([12]; 500 g ai/ha): 0; Plant response rating, Blackgrass ([13]; 125 g ai/ha): 0; Plant response rating, Blackgrass ([13]; 500 g ai/ha): 40; Plant response rating, Galium ([14]; 125 g ai/ha): 20; Plant response rating, Galium ([14]; 500 g ai/ha): 40; Plant response rating, Wheat ([15]; 125 g ai/ha): 0; Plant response rating, Wheat ([15]; 500 g ai/ha): 40; Plant response rating, Corn (corn (Zea mays); 125 g ai/ha): 0; Plant response rating, Corn (corn (Zea mays); 500 g ai/ha): 20; Plant response rating, Rice (Flood) (rice (Oryza sativa)): 0; Plant response rating, Sedge, Umbrella (Flood) [16]: 0; Plant response rating, Ducksalad (Flood) [17]: 75; Plant response rating, Barnyardgrass (Flood) [18]: 0
5 | O=C1NCC(c2cccc(OCC3OCCO3)c2)C1C(=O)Nc1ccccc1F (stereo not drawn) [Compound 8] | 50 | 80 | 0 | 0 | 0 | 0 | 0 | 0 | 80 | 90 | 0 | 0 | 0 | 70 | 0 | 0 | 0 | 10 | 0 | 0 | Plant response rating, Foxtail, Giant ([11]; 125 g ai/ha): 0; Plant response rating, Foxtail, Giant ([11]; 500 g ai/ha): 70; Plant response rating, Pigweed ([12]; 125 g ai/ha): 0; Plant response rating, Pigweed ([12]; 500 g ai/ha): 0; Plant response rating, Blackgrass ([13]; 125 g ai/ha): 0; Plant response rating, Blackgrass ([13]; 500 g ai/ha): 20; Plant response rating, Galium ([14]; 125 g ai/ha): 0; Plant response rating, Galium ([14]; 500 g ai/ha): 0; Plant response rating, Wheat ([15]; 125 g ai/ha): 0; Plant response rating, Wheat ([15]; 500 g ai/ha): 0; Plant response rating, Corn (corn (Zea mays); 125 g ai/ha): 0; Plant response rating, Corn (corn (Zea mays); 500 g ai/ha): 20; Plant response rating, Rice (Flood) (rice (Oryza sativa)): 0; Plant response rating, Sedge, Umbrella (Flood) [16]: 0; Plant response rating, Ducksalad (Flood) [17]: 35; Plant response rating, Barnyardgrass (Flood) [18]: 0
